Among the test systems are HL-60(TB) leukemia; HT29 colon; SK-MEL-2 melanoma; A549 NSCLC; SK-OV-3 ovarian; NCI-H522 lung; HS 578T breast; SK-MEL-28 melanoma; EKVX NSCLC; COLO 205 colon.
What all share (assay): DTP human tumour cell line panel, 48 h

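Cultured in 96-well plates, cells were exposed to test compound for 48 hours across five concentrations. Here, GI50 denotes the concentration required for 50% inhibition of growth. TGI denotes the concentration required for complete inhibition of growth.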

Experimental findings from PubChem BioAssay (NCI) are described below.

On to `CN(C)CCNc1ccc2ncnc3c2c1C(=O)c1ccccc1-3`, for which the TGI in the assay with HL-60(TB) leukemia was > 23.6 µM; with HT29 colon it was 2.98 µM; in the assay on SK-MEL-2 melanoma it was 10.8 µM; with A549 NSCLC, 1.73 µM; with SK-OV-3 ovarian, > 72.4 µM; with NCI-H522 lung, 0.982 µM. In addition, the TGI in the assay with HS 578T breast was found to be 15.1 µM; with SK-MEL-28 melanoma, 10.9 µM; in the assay with EKVX NSCLC it was 5.67 µM; in the assay with COLO 205 colon, 15.5 µM.
Take `Cc1nc(Cl)c2sc(=S)n(-c3ccc(F)cc3)c2n1`: the TGI worked out at 43.2 µM with HL-60(TB) leukemia; 5.51 µM in the assay on HT29 colon; 25.4 µM in the assay with SK-MEL-2 melanoma; 25.4 µM with A549 NSCLC; 25.9 µM in the assay on SK-OV-3 ovarian; 10.9 µM in the assay on NCI-H522 lung. Also, the TGI with HS 578T breast was determined as 6.24 µM; in the assay with SK-MEL-28 melanoma it was 10.6 µM; in the assay on EKVX NSCLC, 32.9 µM; in the assay with COLO 205 colon it was 16.6 µM.
As for `CO[C@H]1[C@@H](O)[C@@H](C)O[C@@H](O[C@H]2CC[C@@]3(C)[C@H](CC[C@@H]4[C@@H]3CC[C@]3(C)[C@@H](C5=CC(=O)OC5)CC[C@]43O)C2)[C@@H]1O`, the total growth inhibition concentration (TGI) in the assay on HL-60(TB) leukemia came to 0.0119 µM; in the assay on HT29 colon, 0.0504 µM; in the assay with SK-MEL-2 melanoma, 0.0538 µM; in the assay with A549 NSCLC, 0.00487 µM; with SK-OV-3 ovarian, 0.0491 µM; with NCI-H522 lung it was 0.0194 µM. Moreover, the TGI was determined as 0.031 µM with HS 578T breast, 1.01 µM in the assay on SK-MEL-28 melanoma, 0.0106 µM in the assay on EKVX NSCLC and 0.221 µM in the assay on COLO 205 colon.
As for `CCC(CS(=O)(=O)O)[N+](=O)[O-]` (stereo not drawn), the total growth inhibition concentration (TGI) with HL-60(TB) leukemia, in the assay with HT29 colon, in the assay with SK-MEL-2 melanoma, in the assay on A549 NSCLC, in the assay with SK-OV-3 ovarian and with NCI-H522 lung was > 100 µM throughout. Further, the TGI in the assay on HS 578T breast, with SK-MEL-28 melanoma, with EKVX NSCLC and in the assay with COLO 205 colon was > 100 µM each time.
Consider `Nc1ccc2c(c1)C1=NNC(=O)CC1C2` (stereo not drawn), for which the TGI in the assay with HL-60(TB) leukemia, with HT29 colon, in the assay on SK-MEL-2 melanoma, with A549 NSCLC, in the assay with SK-OV-3 ovarian and in the assay on NCI-H522 lung was > 100 µM each time. Also, the total growth inhibition concentration (TGI) with SK-MEL-28 melanoma, in the assay with EKVX NSCLC and in the assay with COLO 205 colon was > 100 µM each time.
On to `COc1ccc(-c2cc(-c3ccccc3)n(C3OCC(OC(C)=O)C(OC(C)=O)C3OC(C)=O)c(=S)c2C#N)cc1` (stereo not drawn), for which the TGI in the assay on HL-60(TB) leukemia, with HT29 colon, with SK-MEL-2 melanoma, in the assay on A549 NSCLC, in the assay with SK-OV-3 ovarian and in the assay with NCI-H522 lung was > 100 µM throughout. For the same molecule, the TGI in the assay with HS 578T breast, in the assay with SK-MEL-28 melanoma, in the assay with EKVX NSCLC and in the assay on COLO 205 colon was > 100 µM throughout.
In the case of `CC1SC(c2ccccc2)N(Nc2c3ccccc3nc3ccccc23)C1=O` (stereo not drawn), the TGI in the assay on HT29 colon, in the assay with SK-MEL-2 melanoma, in the assay on A549 NSCLC, with SK-OV-3 ovarian, with NCI-H522 lung and in the assay with SK-MEL-28 melanoma was > 100 µM each time. The TGI in the assay on EKVX NSCLC and in the assay on COLO 205 colon was > 100 µM each time.
Consider `[N-]=[N+]=Nc1ccc(NCCCCCC(=O)ON2C(=O)CCC2=O)c([N+](=O)[O-])c1`, for which the TGI with HL-60(TB) leukemia, with HT29 colon, in the assay on SK-MEL-2 melanoma, with A549 NSCLC, in the assay on SK-OV-3 ovarian and in the assay with NCI-H522 lung was > 100 µM each time. Further, the TGI in the assay with HS 578T breast was 97.2 µM; in the assay with SK-MEL-28 melanoma it was > 100 µM; in the assay with EKVX NSCLC it was > 100 µM; with COLO 205 colon, > 100 µM.
Regarding `COc1cc(-c2n/c(=C\c3c(O)[nH]c4ccc(Cl)cc34)cc3c2=Nc2ccccc2-3)cc(OC)c1OC`, the GI50 in the assay with HL-60(TB) leukemia is 10.7 µM; with HT29 colon it was 1.04 µM; in the assay on SK-MEL-2 melanoma, 2.21 µM; in the assay on SK-OV-3 ovarian, 2.16 µM; with NCI-H522 lung, 1.79 µM; in the assay on HS 578T breast it was 2.29 µM. Further, the GI50 with SK-MEL-28 melanoma was 2.04 µM; with EKVX NSCLC, 3.59 µM; in the assay on COLO 205 colon, 1.35 µM. Moreover, the TGI in the assay on HL-60(TB) leukemia came out at 38.1 µM; in the assay with HT29 colon, 2.96 µM; with SK-MEL-2 melanoma it was 4.9 µM; with SK-OV-3 ovarian it was 4.79 µM; in the assay with NCI-H522 lung, 4.09 µM; in the assay with HS 578T breast it was 8.31 µM. The TGI with SK-MEL-28 melanoma came out at 4.41 µM; with EKVX NSCLC, 18.7 µM; with COLO 205 colon, 3.81 µM.
On to `NCC[Se][Se]CCN`, for which the TGI in the assay with HL-60(TB) leukemia came out at 7.57 µM; in the assay on HT29 colon, 26.9 µM; with SK-MEL-2 melanoma it was 23.2 µM; in the assay with A549 NSCLC it was 25.3 µM; in the assay on SK-OV-3 ovarian it was 25.8 µM; with NCI-H522 lung, 25.6 µM. Moreover, the TGI with HS 578T breast was found to be 82.2 µM; in the assay on SK-MEL-28 melanoma, 29.7 µM; in the assay on EKVX NSCLC, 18.1 µM; in the assay on COLO 205 colon, 14.6 µM.
Regarding `COc1ccc(OC)c([N+](=O)[O-])c1-c1nc2sccn2c1/C=N/N=C(N)N`, the concentration for total growth inhibition (TGI) with HL-60(TB) leukemia is > 100 µM; in the assay with HT29 colon, > 100 µM; with SK-MEL-2 melanoma, 93.2 µM; in the assay on A549 NSCLC, > 100 µM; in the assay on SK-OV-3 ovarian, > 100 µM; with NCI-H522 lung, > 100 µM. For the same molecule, the concentration for total growth inhibition (TGI) was 92.6 µM in the assay with HS 578T breast, 68.3 µM with SK-MEL-28 melanoma, > 100 µM in the assay with EKVX NSCLC and > 100 µM with COLO 205 colon.
`CC(CN(C)C)C(=O)c1ccccc1C(=O)O` (stereo not drawn): the TGI is 49.4 µM in the assay on HL-60(TB) leukemia; > 100 µM in the assay with HT29 colon; 46.9 µM with SK-MEL-2 melanoma; > 100 µM with A549 NSCLC; > 100 µM in the assay on SK-OV-3 ovarian; 36.6 µM with NCI-H522 lung. Moreover, the TGI in the assay with HS 578T breast is 80.6 µM; in the assay with SK-MEL-28 melanoma it was > 100 µM; with EKVX NSCLC it was > 100 µM; in the assay with COLO 205 colon, 66.3 µM.
For `O=C(CCCn1c(=O)c2sc3ccccc3c2n2nnc(-c3ccccc3)c12)NCCc1cnc[nH]1`, the GI50 with HL-60(TB) leukemia is 1.41 µM; in the assay on HT29 colon, 1.36 µM; in the assay on SK-OV-3 ovarian, 3.44 µM; in the assay on NCI-H522 lung it was 1.06 µM; with SK-MEL-28 melanoma, 1.75 µM; in the assay with EKVX NSCLC, 2.7 µM. The GI50 in the assay on COLO 205 colon is 1.1 µM. The TGI amounted to 6.36 µM with HL-60(TB) leukemia; 3.16 µM in the assay with HT29 colon; 15.7 µM in the assay with SK-OV-3 ovarian; 11.7 µM in the assay with NCI-H522 lung; 3.2 µM in the assay on SK-MEL-28 melanoma; 8.77 µM in the assay with EKVX NSCLC. The molecule also showed a total growth inhibition concentration (TGI) with COLO 205 colon of 4.8 µM.
For `O=[N+]([O-])c1ccc(N=Nc2c(O)ccc3cc(S(=O)(=O)O)ccc23)cc1`, the TGI in the assay on HT29 colon, in the assay with SK-MEL-2 melanoma, with A549 NSCLC, in the assay on SK-OV-3 ovarian, in the assay with NCI-H522 lung and in the assay on HS 578T breast was > 100 µM in each case. In addition, the concentration for total growth inhibition (TGI) in the assay with SK-MEL-28 melanoma, in the assay with EKVX NSCLC and in the assay on COLO 205 colon was > 100 µM each time.
In the case of `CNC(C)Cc1ccccc1O` (stereo not drawn), the TGI in the assay on HL-60(TB) leukemia, with HT29 colon, in the assay with SK-MEL-2 melanoma, in the assay with A549 NSCLC, in the assay with SK-OV-3 ovarian and with NCI-H522 lung was > 100 µM throughout. Also, the TGI with SK-MEL-28 melanoma, with EKVX NSCLC and with COLO 205 colon was > 100 µM throughout.
As for `CCn1nc(C)c2c1C(=O)NC(C)C(=O)N2` (stereo not drawn), the TGI in the assay on HT29 colon, in the assay on A549 NSCLC, in the assay with SK-OV-3 ovarian, in the assay with NCI-H522 lung, in the assay on HS 578T breast and in the assay with SK-MEL-28 melanoma was > 100 µM in each case. In addition, the TGI with EKVX NSCLC and with COLO 205 colon was > 100 µM throughout.
Regarding `CC(C)(N)CO[C@H]1C[C@H]2CC[C@@]1(C)C2(C)C`, the TGI was 34 µM in the assay on HT29 colon; 35.3 µM in the assay on SK-MEL-2 melanoma; > 100 µM in the assay with A549 NSCLC; > 100 µM with SK-OV-3 ovarian; 37.1 µM in the assay on NCI-H522 lung; 79 µM in the assay on HS 578T breast. Besides, the values for the TGI in the assay with SK-MEL-28 melanoma, with EKVX NSCLC and in the assay with COLO 205 colon were 27.4 µM, > 100 µM and 35.2 µM, respectively.
In the case of `COc1cc2cc[n+](C)c(Cc3ccccc3)c2cc1OC`, the TGI in the assay with HT29 colon, with SK-MEL-2 melanoma, in the assay on A549 NSCLC, in the assay on SK-OV-3 ovarian, in the assay on NCI-H522 lung and with SK-MEL-28 melanoma was > 100 µM each time. In addition, the TGI with EKVX NSCLC and with COLO 205 colon was > 100 µM in each case.
For the molecule `C=C(C)[C@@H]1CC[C@]2(C)CC[C@]3(C)[C@H](CC[C@@H]4[C@@]5(C)CC[C@H](OC(=O)c6ccccc6)C(C)(C)[C@@H]5CC[C@]43C)[C@@H]12`, the TGI in the assay on HL-60(TB) leukemia, in the assay with HT29 colon, in the assay on SK-MEL-2 melanoma, in the assay with A549 NSCLC, in the assay with SK-OV-3 ovarian and in the assay on NCI-H522 lung was > 100 µM throughout. Further, the TGI in the assay with HS 578T breast, in the assay with SK-MEL-28 melanoma, in the assay on EKVX NSCLC and with COLO 205 colon was > 100 µM each time.
Turning to `O=S1(=O)NNC(=NCc2ccc(Cl)c(Cl)c2)c2ccccc21`, the TGI in the assay on HL-60(TB) leukemia, with HT29 colon, with SK-MEL-2 melanoma, with A549 NSCLC, with EKVX NSCLC and with COLO 205 colon was > 100 µM in each case.

The TGI is the concentration giving total growth inhibition. A high value points to lower sensitivity of the cells. Usually GI50 stands for the concentration giving 50% growth inhibition.
